# Assay results published in patent US20240182869A1 (priority 2021, published 2024).
# Where two headings read alike, the source gives them in different places.
# Assays:
# [1] = system: C. perfringens; assay type: cell-based, Clostridium perfringens
# [2] = system: C. perfringens; assay type: cell-based, Clostridium perfringens; remark: listed apart in the source
# [3] = system: C. perfringens strain CP6; assay type: in vivo, Ross x Ross broiler chickens; settings: T3 BMD 55 gm/metric ton in feed, C. perfringens challenge; for Adjusted FCR: adjusted for mortality
# [4] = system: C. perfringens strain CP6; assay type: in vivo, Ross x Ross broiler chickens; settings: for Adjusted FCR: adjusted for mortality
# [5] = system: C. perfringens isolates; assay type: cell-based, Clostridium perfringens
# [6] = Day 0 to 14, T3 BMD 55 gm/metric ton, C. perfringens challenge
# [7] = Day 0 to 22, T3 BMD 55 gm/metric ton, C. perfringens challenge
# [8] = Day 0 to 28, T3 BMD 55 gm/metric ton, C. perfringens challenge
# [9] = T3 BMD 55 gm/metric ton, C. perfringens challenge, DOT 22
substance,measurement,setting,value
Clostridium phage vB_CpeP_ACP5,Virulence Index,[1],0.86
same,Cocktail MOI,[2],0.001
same,Individual MOI,[2],0.01
Clostridium phage vB_CpeP_ACP8,Virulence Index,[1],0.92
same,Cocktail MOI,[2],0.001
same,Individual MOI,[2],0.01
Bacitracin methylene disalicylate [Bacitracin Methylene Disalicylate (BMD)],Feed Intake,[3]; Day 0 to 14,4.87A Kg/Cage
same,Non-Adjusted FCR,[3]; Day 0 to 14,1.217AB
same,Weight Gain,[3]; Day 0 to 14,0.430A ^ kg
same,Adjusted FCR,[3]; Day 0 to 14,1.186AB
same,Feed Intake,[3]; Day 0 to 22,11.55AB Kg/Cage
same,Non-Adjusted FCR,[3]; Day 0 to 22,1.662BC
same,Weight Gain,[3]; Day 0 to 22,0.861AB kg
same,Adjusted FCR,[3]; Day 0 to 22,1.470AB
same,Feed Intake,[3]; Day 0 to 28,16.095BC Kg/Cage
same,Non-Adjusted FCR,[3]; Day 0 to 28,1.867BC
same,Overall Mortality,[3]; Day 0 to 28,24.00AB Percent
same,Weight Gain,[3]; Day 0 to 28,1.236AB kg
same,Adjusted FCR,[3]; Day 0 to 28,1.581A
same,NE Percent Mortality,[3],18.00A Percent
same,Lesion Scores Dunn's All-Pairwise Comparisons Test,[3]; DOT 22,33.00AB
same,Lesion Scores Kruskal-Wallis One-Way AOV (Mean Rank),[3]; DOT 22,33.00
same,"Lesion Scores Mean Score (Hofacre, 1998)",[3]; DOT 22,0.60AB
same,NE Percent Mortality,[3]; listed as BMD,18%
same,Feed Intake,[4]; [6],4.55A Kg/Cage
same,Non-Adjusted FCR,[4]; [6],1.353AB
same,Weight Gain,[4]; [6],0.338A kg
same,Adjusted FCR,[4]; [6],1.353AB
same,Feed Intake,[4]; [7],10.47A Kg/Cage
same,Non-Adjusted FCR,[4]; [7],1.403AB
same,Weight Gain,[4]; [7],0.776A kg
same,Adjusted FCR,[4]; [7],1.361AB
same,Feed Intake,[4]; [8],15.93A Kg/Cage
same,Non-Adjusted FCR,[4]; [8],1.483B
same,Overall Mortality,[4]; [8],3.33AB Percent
same,Weight Gain,[4]; [8],1.154A kg
same,Adjusted FCR,[4]; [8],1.453A
same,Lesion Scores Dunn's All-Pairwise Comparisons Test,[4]; [9],13.83A
same,Lesion Scores Kruskal-Wallis One-Way AOV (Mean Rank),[4]; [9],13.83
same,"Lesion Scores Mean Score (Hofacre, 1998)",[4]; [9],0.33A
same,FCR to DOT 28 versus challenge control (T2),[4]; both doses (T4 & T5) and BMD (T3),significantly better than the challenge control
Clostridium phage vB_CpeP_MN6171,Virulence Index,[1],0.19
same,Cocktail MOI,[2],0.01
same,Individual MOI,[2],0.01
Clostridium phage vB_CpeS_RO96,Virulence Index,[1],0.67
same,Cocktail MOI,[2],0.01
same,Individual MOI,[2],0.01
Clostridium phage vB_CpeM_ACP45,Virulence Index,[1],0.91
same,Cocktail MOI,[2],0.01
same,Individual MOI,[2],0.01
Clostridium phage vB_CpeP_VLR28,Virulence Index,[1],0.18
same,Cocktail MOI,[2],0.001
same,Individual MOI,[2],0.01
Clostridium phage vB_CpeP_ACP10,Virulence Index,[1],0.19
same,Cocktail MOI,[2],0.001
same,Individual MOI,[2],0.1
Clostridium phage vB_CpeP_ACP22,Virulence Index,[1],0.14
same,Cocktail MOI,[2],0.01
same,Individual MOI,[2],0.1
Clostridium phage vB_CpeM_AE3110,Virulence Index,[1],0.24
same,Cocktail MOI,[2],0.01
same,Individual MOI,[2],0.1
Clostridium phage vB_CpeP_ACP11,Virulence Index,[1],0.03
same,Cocktail MOI,[2],0.01
same,Individual MOI,[2],0.1
Clostridium phage vB_CpeM_SMS460,Virulence Index,[1],0.95
same,"Clostridium perfringens strains capable of being infected or lysed (host range, FIG. 2)",[5],"ATCC 13124, Q143.CN7, JBCNJ055, Q100,CN13, Q159.4C, JBFR063, M030.1C, CP_UoA_CA_39, CP_UoA_CA_24, JBCNI056, JBCNC058, JBCNC056 and CP_UoA_CA_132"
same,Cocktail MOI,[2],0.001
same,Individual MOI,[2],0.01
